Several values for one entry are separate records, joined by “and”; a condition that tells them apart may be missing. Identical values can stand only once. Counter-ions that a name gives are not always drawn. Marks after values point to notes of the source that are not given here.
What was measured:
[1] = test system: PrP^Sc accumulation in persistently infected hTERT-ovine microglia; format: cell-based; conditions: for EC50: read-out: TC-EC50 (50% tissue culture effective concentration)
[2] = test system: PrP^Sc-positive hTERT-ovine microglia; experiment: cells; format: cell-based; conditions: for activity at 1 µM: Ovis aries, Microglia, 96 h, read-out: % BrdU incorporation
[3] = in vitro; conditions: sheep; for viability at 1 µM: % cell viability
[4] = test system: PrP^Sc-positive hTERT-ovine microglia; experiment: cells; format: cell-based; conditions: Ovis aries, 96 h, read-out: % cell count
[5] = target: PrP^Sc in scrapie-positive sheep brain homogenate (Ovis aries, UniProt P23907); format: biochemical
[6] = test system: PrP^Sc-positive hTERT-ovine microglia
[7] = test system: PRNP transcripts in PrP^Sc-negative hTERT-ovine microglia; format: cell-based
[8] = test system: total PrP^C in PrP^Sc-negative hTERT-ovine microglia; format: cell-based
[9] = test system: PrP^Sc accumulation in scrapie-infected primary ovine microglia; conditions: cited from earlier work

Chain of PrP^Sc in scrapie-positive sheep brain homogenate (P23907 25-233 limits assumed): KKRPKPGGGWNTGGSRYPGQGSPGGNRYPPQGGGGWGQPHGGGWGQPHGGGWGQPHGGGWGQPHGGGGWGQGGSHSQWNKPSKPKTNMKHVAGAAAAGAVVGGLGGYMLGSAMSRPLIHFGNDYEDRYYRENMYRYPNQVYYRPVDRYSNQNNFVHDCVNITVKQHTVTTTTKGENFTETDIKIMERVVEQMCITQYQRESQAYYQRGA

SMILES | % reduction in PrP^Sc [1] | EC50 [1] [nM] | activity at 1 µM [2] [%] | CC50 [3] [nM] | viability at 1 µM [3] [%] | viability at 1 µM [4] [%] | other results
N=C(N)c1ccc2nc(-c3ccc(-c4nc5ccc(C(=N)N)cc5[nH]4)[nH]3)[nH]c2c1 [DB192] | 61^d % | 910 ± 80 | 101 | > 3160 | 150 | 98 | Selectivity index (CC50/TC-EC50) [1]: >3.5^e; Effect on cell proliferation (BrdU) over the 4-day treatment period [2]: significant effect on cell proliferation was not detected
N=C(N)c1ccc(-c2ccc(-c3cnc4ccc(C(=N)N)cc4c3)s2)cc1 [DB1504] | – | 390 ± 110 | 100 | > 3160 | 156 | 102 | Selectivity index (CC50/TC-EC50) [1]: >8.1^e; Effect on cell proliferation (BrdU) over the 4-day treatment period [2]: significant effect on cell proliferation was not detected
N=C(N)c1ccc2nc(-c3ccc(-c4ccc(-c5nc6ccc(C(=N)N)cc6[nH]5)o4)cc3)[nH]c2c1 [DB2137] | 31% | – | – | – | 102 | – | –
Nc1cccc(-c2ccc(-c3nc4ccc(C5=NCCN5)cc4[nH]3)o2)c1 [DB900] | −5% | – | – | – | 125 | – | –
N=C(N)c1ccc2nc(-c3ccc(-c4ccc(C(=N)N)c(F)c4)o3)[nH]c2c1 [DB989] | 26% | – | – | – | 126 | – | –
c1cc(-c2ccc(-c3nc4ccc(C5=NCCN5)cc4[nH]3)o2)ccc1C1=NCCN1 [DB302] | 19% | – | – | – | 205 | – | –
Cn1c(-c2ccc(-c3ccc(C4=NCCN4)cc3)o2)nc2ccccc21 [DB948] | 83% and 83^f % | 430 ± 150 | – | 1500 ± 500 | 60 | 68 | –
N=C(N)c1ccc(-c2ccc(-c3nc4ccccc4[nH]3)o2)cc1 [DB771] | 27% | – | – | – | 98 | – | Stabilization of PrP^Sc against PK digestion [5]: significant stabilization of PrP^Sc was not detected
N=C(N)c1ccc2nc(-c3ccc(-c4nc5ccc(C(=N)N)cc5[nH]4)[se]3)[nH]c2c1 [DB1310] | 77% and 77^d % | 410 ± 80 | 91 | > 3160 | 110 | 92 | Selectivity index (CC50/TC-EC50) [1]: >7.7^e; Effect on cell proliferation (BrdU) over the 4-day treatment period [2]: significant effect on cell proliferation was not detected
N=C(N)c1ccc2nc(-c3ccc(-c4ccc(OCc5cn(CCc6cccc7ccccc67)nn5)cc4)s3)[nH]c2c1 [DB2228] | 63^f % | 200 ± 80 | 92 | > 3160 | 120 | 82 | Selectivity index (CC50/TC-EC50) [1]: >15.8^e; Effect on cell proliferation (BrdU) over the 4-day treatment period [2]: significant effect on cell proliferation was not detected
N=C(N)c1ccc(-c2ccc(-c3ccc(-c4nc5ccc(C(=N)N)cc5[nH]4)cc3)s2)cc1 [DB2214] | 69^f % | 260 ± 140 | 68 | > 3160 | 180 | 84 | –
N=C(N)c1ccc2nc(-c3ccc(-c4ccc(-c5ccccc5)cc4)o3)[nH]c2c1 [DB1275] | 49^f % | – | – | – | 115 | – | –
Cn1c(-c2nc3ccc(C(=N)N)cc3[nH]2)ccc1-c1nc2ccc(C(=N)N)cc2[nH]1 [DB191] | 65^d % | 490 ± 140 | 74 | > 3160 | 188 | 88 | Selectivity index (CC50/TC-EC50) [1]: >6.4^e; Effect on cell viability in dilution series [6]: failed to demonstrate any effect on cell viability
N=C(N)c1ccc2nc(-c3cccc(-c4nc5ccc(C(=N)N)cc5[nH]4)n3)[nH]c2c1 [DB205] | 52^d % | – | – | – | 127 | – | –
Cc1cc(C(=N)N)ccc1-c1ccc(-c2nc3ccc(C(=N)N)cc3[nH]2)o1 [DB850] | 11% | – | – | – | 154 | – | –
N=C(N)c1ccc2nc(-c3ccc(-c4nc5ccc(C(=N)N)cc5[nH]4)s3)[nH]c2c1 [DB1033] | 81% and 81^d % | 580 ± 140 | 68 | > 3160 | 91 | 96 | Selectivity index (CC50/TC-EC50) [1]: >5.4^e; Effect on cell viability in dilution series [6]: failed to demonstrate any effect on cell viability
COc1ccc(-c2ccc(-c3nc4ccc(C(=N)N)cc4[nH]3)s2)cc1 [DB2263] | 46^f % | – | – | – | 108 | – | –
N=C(N)c1ccc2nc(-c3ccc(-c4ccc([N+](=O)[O-])cc4)o3)[nH]c2c1 [DB472] | 11% | – | – | – | 120 | – | –
N=C(N)c1ccc2nc(-c3ccc(NC(=O)Nc4ccc(-c5nc6ccc(C(=N)N)cc6[nH]5)cc4)cc3)[nH]c2c1 [DB2265] | 28% | – | – | – | 105 | – | –
c1ccc2[nH]c(-c3ccc(-c4ccc(C5=NCCN5)cc4)s3)nc2c1 [DB932A] | 70^f % | 390 ± 110 | 66 | 2500 ± 300 | 81 | 92 | Stabilization of PrP^Sc against PK digestion [5]: significant stabilization of PrP^Sc was not detected
N=C(N)c1ccc2nc(-c3ccc(-c4ccc(C(=N)N)c(O)c4)o3)[nH]c2c1 [DB992] | 30% | – | – | – | 150 | – | –
c1ccc2[nH]c(-c3ccc(-c4ccc(C5=NCCN5)cc4)o3)nc2c1 [DB772, 2-(2-benzimidazolyl)-5-[4-(2-imidazolino)phenyl] furan dihydrochloride] | – | 800 ± 90 | 78 | 3800 ± 900 | 96 | 89 | Effect on cell proliferation (BrdU) over the 4-day treatment period [2]: significant effect on cell proliferation was not detected; Effect on PrP^C expression (PRNP transcripts) [7]: significant effect on PrP^C expression was not detected; Effect on PrP^C expression (total PrP) [8]: significant effect on PrP^C expression was not detected; Inhibition of PrP^Sc accumulation [9]: nearly complete inhibition
N=C(N)c1ccc(-c2ccc(-c3ccc(-c4nc5ccc(C(=N)N)cc5[nH]4)cc3)o2)nc1 [DB1264] | 68^f % | 390 ± 60 | 77 | > 3160 | 138 | 89 | Selectivity index (CC50/TC-EC50) [1]: >8.1^e; Effect on cell proliferation (BrdU) over the 4-day treatment period [2]: significant effect on cell proliferation was not detected
N=C(N)c1ccc2nc(-c3ccc(-c4cccc(-c5ccc(-c6nc7ccc(C(=N)N)cc7[nH]6)o5)c4)o3)[nH]c2c1 [DB2147] | 37% | – | – | – | 90 | – | –
N=C(N)c1ccc(-c2ccc(-c3nc4ccc(C(=N)N)cc4[nH]3)o2)cc1 [DB293] | 51^f % | – | – | – | 135 | – | –
N=C(N)c1ccc2nc(-c3ccc(-c4ccc(C(N)=O)cc4)o3)[nH]c2c1 [DB1932] | 24% | – | – | – | 120 | – | –
N=C(N)c1ccc(-c2ccc(-c3nc4ccc(C(=N)N)cc4[nH]3)s2)cc1 [DB818A] | 74^f % | 460 ± 80 | 76 | > 3160 | 170 | 85 | Stabilization of PrP^Sc against PK digestion [5]: significant stabilization of PrP^Sc was not detected
N=C(N)c1ccc(-c2ccc(-c3ccc(C(=N)N)cc3)o2)cc1 [DB075, furamidine] | 27% | – | – | – | 149 | – | –
N=C(N)c1ccc2nc(-c3ccc(-c4ccc(C(N)=O)cc4)s3)[nH]c2c1 [DB1933] | 39% | – | – | – | 127 | – | –
c1ccc(-c2ccc(-c3nc4ccc(C5=NCCN5)cc4[nH]3)s2)cc1 [DB953] | 53^f % | – | – | – | 134 | – | –

From article PMC4997874 (Antimicrobial Agents and Chemotherapy, 2016)
